Earlier results in patent publication US9000165B2 (priority 2011, dated 2015).

Columns and labels:
[1] = target: T1, serotonin 5-HT1A receptors (Homo sapiens, UniProt P08908)
T1 sequence (P08908 1-422): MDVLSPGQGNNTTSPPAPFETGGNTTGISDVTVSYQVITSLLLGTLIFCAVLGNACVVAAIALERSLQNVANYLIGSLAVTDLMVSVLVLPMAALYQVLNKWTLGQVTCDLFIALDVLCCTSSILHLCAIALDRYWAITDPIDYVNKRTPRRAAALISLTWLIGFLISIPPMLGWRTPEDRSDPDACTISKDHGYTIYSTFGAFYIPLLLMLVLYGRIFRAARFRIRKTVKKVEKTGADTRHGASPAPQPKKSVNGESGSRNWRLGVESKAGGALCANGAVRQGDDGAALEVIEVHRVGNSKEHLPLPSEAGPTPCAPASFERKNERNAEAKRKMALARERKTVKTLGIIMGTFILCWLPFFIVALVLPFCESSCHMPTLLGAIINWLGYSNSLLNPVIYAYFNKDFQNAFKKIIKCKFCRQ

[2] = target: serotonin 5-HT2A receptors (Homo sapiens, UniProt P28223)
Sequence of serotonin 5-HT2A receptors (P28223 whole entry): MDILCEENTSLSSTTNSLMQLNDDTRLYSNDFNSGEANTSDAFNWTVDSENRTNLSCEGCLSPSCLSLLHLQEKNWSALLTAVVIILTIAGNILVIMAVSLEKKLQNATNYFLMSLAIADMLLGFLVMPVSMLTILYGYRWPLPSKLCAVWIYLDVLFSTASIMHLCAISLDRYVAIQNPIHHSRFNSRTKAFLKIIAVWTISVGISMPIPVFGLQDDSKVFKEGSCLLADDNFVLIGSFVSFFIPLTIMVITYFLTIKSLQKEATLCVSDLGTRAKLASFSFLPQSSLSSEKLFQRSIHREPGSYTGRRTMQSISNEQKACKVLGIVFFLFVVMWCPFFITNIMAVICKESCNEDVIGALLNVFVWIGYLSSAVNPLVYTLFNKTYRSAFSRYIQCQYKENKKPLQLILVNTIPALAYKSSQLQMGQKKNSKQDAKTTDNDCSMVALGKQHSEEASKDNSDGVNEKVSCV

[3] = target: T2, serotonin 5-HT2C receptors (Homo sapiens, UniProt P28335)
T2 sequence (P28335 33-458): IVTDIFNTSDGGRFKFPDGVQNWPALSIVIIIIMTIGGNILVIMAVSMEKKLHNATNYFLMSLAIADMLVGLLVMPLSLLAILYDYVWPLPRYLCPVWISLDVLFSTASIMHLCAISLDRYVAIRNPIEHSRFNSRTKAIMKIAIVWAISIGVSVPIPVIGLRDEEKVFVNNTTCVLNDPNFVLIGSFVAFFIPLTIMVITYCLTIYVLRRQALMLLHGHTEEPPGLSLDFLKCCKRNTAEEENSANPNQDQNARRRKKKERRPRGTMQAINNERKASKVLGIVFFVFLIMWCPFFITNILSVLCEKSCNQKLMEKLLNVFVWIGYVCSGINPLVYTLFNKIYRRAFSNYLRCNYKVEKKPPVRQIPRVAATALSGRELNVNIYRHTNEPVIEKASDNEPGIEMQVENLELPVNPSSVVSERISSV

[4] = tested on: α1-adrenaline agonist receptors
histamine H1 receptors = histamine H1 receptors (Homo sapiens, UniProt P35367)
Sequence of histamine H1 receptors (P35367 whole entry): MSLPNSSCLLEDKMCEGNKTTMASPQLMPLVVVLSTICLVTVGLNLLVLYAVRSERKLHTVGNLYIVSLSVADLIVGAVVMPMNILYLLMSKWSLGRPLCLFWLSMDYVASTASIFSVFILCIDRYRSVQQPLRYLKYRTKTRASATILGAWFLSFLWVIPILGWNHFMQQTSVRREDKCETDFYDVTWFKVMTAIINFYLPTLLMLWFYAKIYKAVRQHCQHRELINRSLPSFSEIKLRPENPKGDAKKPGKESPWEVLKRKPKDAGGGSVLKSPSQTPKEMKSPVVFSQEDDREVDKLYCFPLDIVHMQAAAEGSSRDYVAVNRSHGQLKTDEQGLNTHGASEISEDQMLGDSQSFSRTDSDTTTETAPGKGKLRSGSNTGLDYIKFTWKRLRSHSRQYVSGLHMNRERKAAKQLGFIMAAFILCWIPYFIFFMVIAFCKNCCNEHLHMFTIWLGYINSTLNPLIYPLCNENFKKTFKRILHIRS

serotonin reuptake sites = serotonin reuptake sites (Homo sapiens, UniProt P31645)
Sequence of serotonin reuptake sites (P31645 whole entry): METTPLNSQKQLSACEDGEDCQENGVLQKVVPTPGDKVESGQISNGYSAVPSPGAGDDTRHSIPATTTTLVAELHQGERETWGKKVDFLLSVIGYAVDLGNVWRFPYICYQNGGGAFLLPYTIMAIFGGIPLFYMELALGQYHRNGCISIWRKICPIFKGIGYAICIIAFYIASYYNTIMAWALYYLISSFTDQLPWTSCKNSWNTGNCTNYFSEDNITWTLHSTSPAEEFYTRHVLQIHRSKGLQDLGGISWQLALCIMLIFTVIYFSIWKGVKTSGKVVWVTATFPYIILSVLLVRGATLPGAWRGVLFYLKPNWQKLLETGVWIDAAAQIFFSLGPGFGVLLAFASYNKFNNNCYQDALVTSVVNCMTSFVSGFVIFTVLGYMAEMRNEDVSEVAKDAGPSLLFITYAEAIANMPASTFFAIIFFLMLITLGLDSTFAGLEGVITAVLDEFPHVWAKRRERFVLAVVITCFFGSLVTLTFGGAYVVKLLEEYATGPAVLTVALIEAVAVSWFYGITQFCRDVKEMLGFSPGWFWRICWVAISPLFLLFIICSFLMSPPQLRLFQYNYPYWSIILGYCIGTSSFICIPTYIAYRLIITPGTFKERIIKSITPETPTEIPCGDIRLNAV

[5] = tested on: cholinergic muscarinic receptors
[6] = upon exposure to moisture converts into the hydrate form

SMILES | affinity for serotonin 5-HT1A receptors [1] | affinity for serotonin 5-HT2A receptors [2] | affinity for serotonin 5-HT2C receptors [3] | affinity for α1-adrenaline agonist receptors [4] | affinity for histamine H1 receptors (histamine H1 receptors) | affinity for serotonin reuptake sites (serotonin reuptake sites) | affinity for cholinergic muscarinic receptors [5] | hygroscopic property [6]
O=C1CCc2ccc(OCCCCN3CCN(c4cccc(Cl)c4Cl)CC3)cc2N1 [Aripiprazole] | potent affinity | potent affinity | mild affinity | mild affinity | mild affinity | mild affinity | no detectable affinity | 
O=C1CCc2ccc(OCCCCN3CCN(c4cccc(Cl)c4Cl)CC3)cc2N1 [anhydrous aripiprazole crystal form I, Aripiprazole] |  |  |  |  |  |  |  | significant hygroscopic property
